From US11654199B2 (BOLT BIOTHERAPEUTICS, INC., priority 2019, dated 2023)

Key:
human TLR8 = molecular target: T1, human TLR8 (Homo sapiens, UniProt Q9NR97); assay: HEK293 NFKB reporter assay, human TLR8; type: cell-based; conditions: HEK293 NFKB reporter cells expressing human TLR8; read-out: HEK293 hTLR8 EC50
T1 construct: host or cells: HEK293 reporter cells
T1 sequence (Q9NR97 27-1041): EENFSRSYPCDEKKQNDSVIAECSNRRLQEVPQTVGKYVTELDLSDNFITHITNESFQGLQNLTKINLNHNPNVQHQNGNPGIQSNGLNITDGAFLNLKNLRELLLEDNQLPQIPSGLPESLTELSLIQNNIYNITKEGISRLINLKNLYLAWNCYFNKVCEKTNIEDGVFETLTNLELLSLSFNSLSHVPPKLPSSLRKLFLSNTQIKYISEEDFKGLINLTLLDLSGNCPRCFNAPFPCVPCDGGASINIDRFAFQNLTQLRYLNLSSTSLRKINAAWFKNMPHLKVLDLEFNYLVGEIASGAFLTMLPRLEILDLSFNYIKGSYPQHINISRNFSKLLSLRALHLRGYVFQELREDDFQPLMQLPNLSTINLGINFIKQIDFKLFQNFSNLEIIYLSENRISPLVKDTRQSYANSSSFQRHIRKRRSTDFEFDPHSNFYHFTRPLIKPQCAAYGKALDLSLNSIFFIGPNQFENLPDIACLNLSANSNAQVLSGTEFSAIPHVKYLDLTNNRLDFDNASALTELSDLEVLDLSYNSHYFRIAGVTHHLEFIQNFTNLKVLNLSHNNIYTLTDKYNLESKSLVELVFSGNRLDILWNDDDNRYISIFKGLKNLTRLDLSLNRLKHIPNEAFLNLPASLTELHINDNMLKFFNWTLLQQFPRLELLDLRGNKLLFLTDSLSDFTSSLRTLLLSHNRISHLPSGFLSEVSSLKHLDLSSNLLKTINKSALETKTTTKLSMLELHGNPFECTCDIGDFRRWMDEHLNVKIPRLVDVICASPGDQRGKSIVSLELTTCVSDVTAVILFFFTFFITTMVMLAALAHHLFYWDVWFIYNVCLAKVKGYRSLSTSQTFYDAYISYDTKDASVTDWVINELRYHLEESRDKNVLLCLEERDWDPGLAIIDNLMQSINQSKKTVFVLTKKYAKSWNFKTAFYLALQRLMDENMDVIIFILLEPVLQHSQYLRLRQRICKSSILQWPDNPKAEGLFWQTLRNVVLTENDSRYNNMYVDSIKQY
Outline: (§1)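 HEK293 NF-κB reporter cells expressing human TLR7 or TLR8 were seeded at 4×10^4 cells/well in HEK detection medium containing the stimulatory molecules. Reporter activity was read by absorbance at 620-655 nm.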

human TLR7 = molecular target: T2, human TLR7 (Homo sapiens, UniProt Q9NYK1); assay: HEK293 NFKB reporter assay, human TLR7; type: cell-based; conditions: HEK293 NFKB reporter cells expressing human TLR7; read-out: HEK293 hTLR7 EC50
T2 construct: host or cells: HEK293 reporter cells
T2 sequence (Q9NYK1 27-1049): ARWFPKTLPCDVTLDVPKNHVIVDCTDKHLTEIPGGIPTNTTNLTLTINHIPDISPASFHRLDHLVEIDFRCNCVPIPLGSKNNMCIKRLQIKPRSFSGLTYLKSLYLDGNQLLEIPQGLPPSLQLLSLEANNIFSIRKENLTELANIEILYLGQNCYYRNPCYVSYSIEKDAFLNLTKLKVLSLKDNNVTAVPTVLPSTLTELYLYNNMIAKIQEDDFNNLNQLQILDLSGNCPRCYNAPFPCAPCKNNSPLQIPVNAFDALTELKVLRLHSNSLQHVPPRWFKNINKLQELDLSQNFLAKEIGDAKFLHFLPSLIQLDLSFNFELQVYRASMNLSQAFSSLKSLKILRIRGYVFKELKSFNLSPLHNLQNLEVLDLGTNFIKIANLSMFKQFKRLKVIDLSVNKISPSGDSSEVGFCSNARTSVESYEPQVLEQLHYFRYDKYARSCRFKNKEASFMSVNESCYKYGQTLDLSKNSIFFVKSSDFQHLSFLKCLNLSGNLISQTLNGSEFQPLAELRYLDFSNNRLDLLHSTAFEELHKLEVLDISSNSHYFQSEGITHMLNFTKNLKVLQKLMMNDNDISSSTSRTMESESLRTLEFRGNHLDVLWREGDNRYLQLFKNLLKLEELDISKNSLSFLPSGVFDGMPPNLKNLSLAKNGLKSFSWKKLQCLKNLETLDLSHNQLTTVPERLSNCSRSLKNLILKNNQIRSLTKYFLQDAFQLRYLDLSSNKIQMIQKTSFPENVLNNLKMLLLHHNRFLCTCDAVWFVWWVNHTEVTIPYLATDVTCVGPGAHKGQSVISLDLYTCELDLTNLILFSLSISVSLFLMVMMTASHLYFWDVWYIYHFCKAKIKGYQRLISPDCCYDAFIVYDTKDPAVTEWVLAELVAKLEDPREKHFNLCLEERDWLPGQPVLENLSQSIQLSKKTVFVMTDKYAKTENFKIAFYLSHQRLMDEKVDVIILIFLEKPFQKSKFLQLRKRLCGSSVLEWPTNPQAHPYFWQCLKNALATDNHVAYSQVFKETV
Outline: as §1

Row | Compound | EC50 (human TLR8) | EC50 (human TLR7)
1 | CCCN(OCC)C(=O)C1=Cc2sc(CN3Cc4ccc(NC(=O)CCNC(=O)OC(C)(C)C)cc4C3)cc2N=C(N)C1 [TAZ-202] | 1.37 µM | 3.68 µM
2 | CCCN(CCCNC(=O)C(C)(C)C)C(=O)C1=Cc2sc(CCCCCNC(=O)OC(C)(C)C)cc2N=C(N)C1 [TAZ-141] | 3.58 µM | 0.38 µM
3 | CCCN(CCC)C(=O)C1=Cc2sc(C#CCCN)cc2N=C(N)C1 [TAZ-35] | 2.87 µM | > 9 µM
4 | CCCN(OCC)C(=O)C1=Cc2sc(CN3CC[C@H]4NC[C@H]4C3)cc2N=C(N)C1 [TAZ-227] | 2.29 µM | 4.39 µM
5 | CCCN(Cc1ccc(CCN)cc1)C(=O)C1=Cc2sccc2N=C(N)C1 [TAZ-58] | 1.3 µM | > 9 µM
6 | CCCN(NCC)C(=O)C1=Cc2sccc2N=C(N)C1 [TAZ-85] | 4.03 µM | > 9 µM
7 | CCCN(OCC)C(=O)C1=Cc2sc(-c3cn[nH]c3)cc2N=C(N)C1 [TAZ-221] | 6.7 µM | 6.12 µM
8 | CCCN(CC12CC(CN(C)C)(C1)C2)C(=O)C1=Cc2sccc2N=C(N)C1 [TAZ-47] | > 9 µM | > 9 µM
9 | CCCN(OCCNC(=O)CC(C)(C)C)C(=O)C1=Cc2sc(CCCCCN)cc2N=C(N)C1 [TAZ-149] | 2.24 µM | 0.534 µM
10 | CCCN(Cc1ccc(CNC(=O)OC(C)(C)C)cn1)C(=O)C1=Cc2sccc2N=C(N)C1 [TAZ-42] | > 9 µM | > 9 µM
11 | CCCN(OCC)C(=O)C1=Cc2sc(CN3CC4(C3)CN(C(=O)OC(C)(C)C)C4)cc2N=C(N)C1 [TAZ-208] | 8.51 µM | 3.61 µM
12 | CCCN(CCc1ccc(OC)cc1)C(=O)C1=Cc2sc(CCCCCN)cc2N=C(N)C1 [TAZ-107] | 6.98 µM | 3.58 µM
13 | CCCN(OCC)C(=O)C1=Cc2sc(CN3CCC[C@@H](C(=O)OC)C3)cc2N=C(N)C1 [TAZ-223] | 3.14 µM | 3.8 µM
14 | CCCN(CCCNC(=O)OC1CCC1)C(=O)C1=Cc2sc(CNC(=O)c3ccccc3)cc2N=C(N)C1 [TAZ-203] | 3.25 µM | 3.26 µM
15 | CCCN(CCC)C(=O)C1=Cc2sc(CNC(=O)CCNC(=O)OC(C)(C)C)cc2N=C(N)C1 [TAZ-91] | 4.15 µM | 4.28 µM

Results, then the molecule that gave them:

Row | EC50 (human TLR8) | EC50 (human TLR7) | Compound
16 | 2.86 µM | 1.28 µM | CCCN(Cc1ccc(CN(C)C)cc1C(F)(F)F)C(=O)C1=Cc2sc(CCCCCN)cc2N=C(N)C1 [TAZ-144]
17 | 3.13 µM | 4.49 µM | CCCN(CCC)C(=O)C1=Cc2sc(CNC(=O)CNC(=O)OC(C)(C)C)cc2N=C(N)C1 [TAZ-93]
18 | 4.92 µM | > 9 µM | CCCNN(CC)C(=O)C1=Cc2sccc2N=C(N)C1 [TAZ-86]
19 | 0.059 µM | 3.9 µM | NCc1ccc(CN(CCC(F)(F)F)C(=O)C2=Cc3sccc3N=C(N)C2)cc1 [TAZ-77]
20 | 2.72 µM | 3.41 µM | CCCN(OCC)C(=O)C1=Cc2sc(CN3CCNC(=O)C3)cc2N=C(N)C1 [TAZ-224]
21 | 8.27 µM | 8.13 µM | CCON(C(=O)C1=Cc2sc(CC3CN(C(=O)OC(C)(C)C)C3)cc2N=C(N)C1)C(C)CC (centres unmarked) [TAZ-254]
22 | 0.214 µM | 1.94 µM | CCCN(Cc1ccc(CN(C)C)cc1)C(=O)C1=Cc2sccc2N=C(N)C1 [TAZ-87]
23 | 2.27 µM | > 9 µM | CCCN(C(=O)C1=Cc2sccc2N=C(N)C1)C(C)c1ccc(CN)cc1 (centres unmarked) [TAZ-88]
24 | 0.301 µM | 4.11 µM | CCON(CCC(F)(F)F)C(=O)C1=Cc2sccc2N=C(N)C1 [TAZ-74]
25 | 2.54 µM | 1.27 µM | CCCN(OCC)C(=O)C1=Cc2sc(CN3CC(C(=O)OC(C)(C)C)C3)cc2N=C(N)C1 [TAZ-212]
26 | 2.55 µM | 2.67 µM | CCCN(CCCNC(=O)OC1CCC1)C(=O)C1=Cc2sc(CNC(=O)Cc3ccccc3)cc2N=C(N)C1 [TAZ-204]
27 | 2.94 µM | 1.55 µM | CCCN(OCC)C(=O)C1=Cc2sc(CN3CC(CNC(=O)OC(C)(C)C)C3)cc2N=C(N)C1 [TAZ-210]
28 | > 9 µM | > 9 µM | CCCN(C[C@H]1C[C@@H](CN)C1)C(=O)C1=Cc2sccc2N=C(N)C1 [TAZ-49]
